Read-outs that look alike come from different tables or passages of the source.
Columns and labels:
HDAC11 = target: T1, HDAC11 (Homo sapiens, UniProt Q96DB2); experiment: HDAC inhibition assay (fluorogenic peptide, Reaction Biology); type: biochemical; conditions: tested once, ten-dose starting at 30 µM
T1 construct: purchased Reaction Biology Corporation; host or cells: baculovirus expression system in SF9 cells
T1 sequence (Q96DB2 1-347): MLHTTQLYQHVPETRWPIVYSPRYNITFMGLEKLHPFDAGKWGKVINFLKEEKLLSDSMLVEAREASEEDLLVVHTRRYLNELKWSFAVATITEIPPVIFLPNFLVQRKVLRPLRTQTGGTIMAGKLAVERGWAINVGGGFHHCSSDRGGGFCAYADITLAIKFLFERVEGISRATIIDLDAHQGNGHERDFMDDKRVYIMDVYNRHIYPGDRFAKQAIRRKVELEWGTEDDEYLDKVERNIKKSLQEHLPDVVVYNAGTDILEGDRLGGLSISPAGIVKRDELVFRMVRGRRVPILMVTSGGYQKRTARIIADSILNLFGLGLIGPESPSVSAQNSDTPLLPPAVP

HDAC6 = target: T2, HDAC6 (Homo sapiens, UniProt Q9UBN7); experiment: as above; type: biochemical; conditions: tested once, ten-dose starting at 30 µM
T2 construct: purchased Reaction Biology Corporation; host or cells: baculovirus expression system in SF9 cells
T2 sequence (Q9UBN7 1-1215): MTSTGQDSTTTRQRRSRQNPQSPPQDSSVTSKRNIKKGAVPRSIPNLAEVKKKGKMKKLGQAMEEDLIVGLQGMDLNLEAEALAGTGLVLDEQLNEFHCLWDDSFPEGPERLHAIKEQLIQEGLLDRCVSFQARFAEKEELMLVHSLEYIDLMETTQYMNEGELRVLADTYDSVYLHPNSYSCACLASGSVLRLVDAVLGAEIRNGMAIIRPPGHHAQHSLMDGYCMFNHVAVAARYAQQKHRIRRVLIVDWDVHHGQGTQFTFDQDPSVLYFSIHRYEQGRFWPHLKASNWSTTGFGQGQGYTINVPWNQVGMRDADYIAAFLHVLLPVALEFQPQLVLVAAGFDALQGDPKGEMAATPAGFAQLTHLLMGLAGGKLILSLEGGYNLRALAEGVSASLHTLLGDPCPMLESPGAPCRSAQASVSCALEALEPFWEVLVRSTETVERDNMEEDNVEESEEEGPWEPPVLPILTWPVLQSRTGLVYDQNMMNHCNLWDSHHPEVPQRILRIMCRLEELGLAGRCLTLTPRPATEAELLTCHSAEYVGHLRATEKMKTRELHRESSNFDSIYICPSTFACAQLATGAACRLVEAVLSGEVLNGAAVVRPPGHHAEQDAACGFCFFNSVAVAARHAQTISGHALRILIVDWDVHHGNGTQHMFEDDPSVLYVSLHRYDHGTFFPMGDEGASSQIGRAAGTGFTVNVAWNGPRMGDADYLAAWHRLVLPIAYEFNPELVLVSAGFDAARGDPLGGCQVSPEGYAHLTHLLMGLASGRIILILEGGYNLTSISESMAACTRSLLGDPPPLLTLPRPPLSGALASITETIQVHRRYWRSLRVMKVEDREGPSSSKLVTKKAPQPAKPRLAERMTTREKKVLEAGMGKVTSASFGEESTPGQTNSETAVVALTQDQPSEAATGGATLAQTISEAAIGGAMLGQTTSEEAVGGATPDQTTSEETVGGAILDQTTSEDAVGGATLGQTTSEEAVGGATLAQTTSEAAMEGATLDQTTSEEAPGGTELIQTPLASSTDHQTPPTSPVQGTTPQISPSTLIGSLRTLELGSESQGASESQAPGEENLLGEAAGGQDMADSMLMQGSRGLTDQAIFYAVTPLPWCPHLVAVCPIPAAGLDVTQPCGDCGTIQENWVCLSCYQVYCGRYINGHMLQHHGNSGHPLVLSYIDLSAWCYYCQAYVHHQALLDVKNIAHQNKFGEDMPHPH

HDAC1 = target: T3, HDAC1 (Homo sapiens, UniProt Q13547); experiment: as above; type: biochemical; conditions: tested once, ten-dose starting at 30 µM
T3 construct: purchased Reaction Biology Corporation; host or cells: baculovirus expression system in SF9 cells

ALK = target: T4, ALK (Homo sapiens, UniProt Q9UM73); experiment: ALK in vitro enzymatic assay (radioisotope P81 filter-binding, Reaction Biology); type: biochemical
T4 construct: purchased Reaction Biology Corporation

HDAC8 = target: T5, HDAC8 (Homo sapiens, UniProt Q9BY41); experiment: HDAC inhibition assay (fluorogenic diacylpeptide, Reaction Biology); type: biochemical; conditions: tested once, ten-dose starting at 30 µM
T5 construct: purchased Reaction Biology Corporation; host or cells: baculovirus expression system in SF9 cells
T5 sequence (Q9BY41 1-377): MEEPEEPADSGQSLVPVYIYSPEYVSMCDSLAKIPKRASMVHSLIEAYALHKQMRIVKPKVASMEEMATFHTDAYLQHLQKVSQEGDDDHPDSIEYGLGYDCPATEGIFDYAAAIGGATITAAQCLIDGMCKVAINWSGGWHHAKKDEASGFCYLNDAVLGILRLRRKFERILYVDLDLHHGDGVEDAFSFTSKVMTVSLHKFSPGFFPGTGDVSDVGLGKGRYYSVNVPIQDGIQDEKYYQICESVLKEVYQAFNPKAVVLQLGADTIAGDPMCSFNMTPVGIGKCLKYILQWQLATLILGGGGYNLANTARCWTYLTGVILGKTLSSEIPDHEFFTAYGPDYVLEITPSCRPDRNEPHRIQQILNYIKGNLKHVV

[1] = tested on: acetylated histone H3, a substrate of class I HDAC; experiment: Western blot of acetylated histone H3 in H2228 cells; type: cell-based, human; conditions: 6 h, 3b 2 µM
Excerpt: (§1) Figure 4. Effect of test compounds on H2228 cells. […] (A) Western blots of phosphorylated tyrosine residue 1640 on ALK as well as acetylated (Ac) α-tubulin and histone H3 with their corresponding total proteins for normalisation. GAPDH was used as a loading control. (B) Quantification of western blotting results using Image J. Error bars indicate ± S.D.E. *p-Value ≤ 0.05, **p-value ≤ 0.01, ***p-value ≤ 0.001.
Treated cells were washed three times with ice-cold phosphate-buffered saline and lysed in lysis buffer containing 100 mM Tris-HCl, 12 mM sodium deoxycholate, 12 mM sodium lauroylsarcosinate, and protease inhibitor cocktail (BioTools). Cells were heated in lysis buffer at 95 °C for 5 min and then the cell membrane was broken up by sonication (Bioruptor). Cellular debris and unbroken cells were removed by centrifugation (12,500 × g for 30 min, 4 °C). Protein concentration was determined using the bicinchoninic acid assay (Thermo). Cell extracts (20 μg) were resolved by 12% sodium dodecyl sulfate-polyacrylamide gel electrophoresis (SDS-PAGE), transferred to PVDF membranes, and probed separately with antibodies for Ac-histone H3, Ac-α-tubulin, histone H3, α-tubulin, HDAC1, HDAC6, HDAC8 and GAPDH. […] Antibody signals were detected using an enhanced chemiluminescence system.

[2] = tested on: phosphorylation level of Y1604 on ALK; experiment: Western blot of ALK phosphorylation in H2228 cells; type: cell-based, human; conditions: 6 h, 3b 2 µM, 3c 4 µM
Excerpt: as §1
(§2) Treated cells were washed three times with ice-cold phosphate-buffered saline and lysed in lysis buffer containing 100 mM Tris-HCl, 12 mM sodium deoxycholate, 12 mM sodium lauroylsarcosinate, and protease inhibitor cocktail (BioTools). Cells were heated in lysis buffer at 95 °C for 5 min and then the cell membrane was broken up by sonication (Bioruptor). Cellular debris and unbroken cells were removed by centrifugation (12,500 × g for 30 min, 4 °C). Protein concentration was determined using the bicinchoninic acid assay (Thermo). Cell extracts (20 μg) were resolved by 12% sodium dodecyl sulfate-polyacrylamide gel electrophoresis (SDS-PAGE), transferred to PVDF membranes, and probed separately with antibodies for Ac-histone H3, Ac-α-tubulin, histone H3, α-tubulin, HDAC1, HDAC6, HDAC8 and GAPDH. The antibodies of GAPDH, HDAC1, and HDAC8 were purchased from ABclonal and all other antibodies were from Cell Signalling Technology. Antibody signals were detected using an enhanced chemiluminescence system.

H2228 = experiment: SRB antiproliferation assay; type: cell-based; conditions: Homo sapiens, NCI-H2228, 48 h, ALK-addicted cells, read-out: Antiproliferative activity (IC50) H2228
CYP2C19 = target: T6, CYP2C19 (Homo sapiens, UniProt P33261); experiment: CYP450 inhibition assay; type: in vitro ADME; conditions: human recombinant enzyme
T6 construct: purchased Reaction Biology Corporation; host or cells: CYP cDNA baculovirus expression systems
Method: Assays were performed by Reaction Biology Corporation. […] CYP assays used human recombinant CYP1A2, CYP2C9, CYP2C19, CYP2D6, and CYP3A4 expressed in CYP cDNA baculovirus expression systems. […] Substrates used were 3-cyano-7-ethoxycoumarin for CYP1A2, 2C19, and 2D6; Vivid OOMR Substrate for CYP2C9; and Vivid BOMR Substrate for CYP3A4. hERG inhibition assays involved a binding competition between the tested compounds and a fluorescently labelled compound tracer (Predictor hERG Tracer Red) for membrane-bound hERG (Predictor hERG Membrane). E-4031 served as the positive control.

CYP1A2 = target: T7, CYP1A2 (Homo sapiens, UniProt P05177); experiment: CYP450 inhibition assay; type: in vitro ADME; conditions: human recombinant enzyme
T7 construct: purchased Reaction Biology Corporation; host or cells: CYP cDNA baculovirus expression systems

MCF7 = experiment: SRB antiproliferation assay; type: cell-based; conditions: Homo sapiens, 48 h, read-out: Antiproliferative activity (IC50) MCF7
U87MG = experiment: SRB antiproliferation assay; type: cell-based; conditions: Homo sapiens, U-87 MG, 48 h, read-out: Antiproliferative activity (IC50) U87MG
[3] = tested on: protein expression level of HDAC1, HDAC6, or HDAC8; experiment: Western blot of HDAC protein expression; type: cell-based, human; conditions: western blot after treatment (supplemental Figure S3)
Method: as §2
Figure S3. Western blots of HDAC1, HDAC6, and HDAC8 after drug treatment and vehicle control
activity was assessed by MTS assay, and the concentration of inhibitors was determined to be half of their
was tested five times, and the results were normalized to 1. (blank) […]

A549 = experiment: SRB antiproliferation assay; type: cell-based; conditions: Homo sapiens, 48 h, read-out: Antiproliferative activity (IC50) A549
[4] = 20 μM ATP, ten-dose IC50 mode, duplicate, average

T3 sequence (Q13547 whole entry): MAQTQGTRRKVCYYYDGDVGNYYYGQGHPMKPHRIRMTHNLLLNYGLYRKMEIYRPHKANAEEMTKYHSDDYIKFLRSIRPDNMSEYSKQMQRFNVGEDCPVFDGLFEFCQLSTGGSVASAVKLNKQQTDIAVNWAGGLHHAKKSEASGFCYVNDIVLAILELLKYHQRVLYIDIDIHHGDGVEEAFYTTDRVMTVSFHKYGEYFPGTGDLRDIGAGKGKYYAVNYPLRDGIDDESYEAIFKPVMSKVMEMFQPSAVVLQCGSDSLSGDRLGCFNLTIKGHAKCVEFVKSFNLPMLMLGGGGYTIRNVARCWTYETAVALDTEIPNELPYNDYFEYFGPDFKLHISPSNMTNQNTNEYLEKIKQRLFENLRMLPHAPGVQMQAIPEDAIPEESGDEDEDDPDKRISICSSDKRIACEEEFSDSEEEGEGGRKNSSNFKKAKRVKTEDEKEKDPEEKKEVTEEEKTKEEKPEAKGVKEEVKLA
T4 sequence (Q9UM73 19-1620): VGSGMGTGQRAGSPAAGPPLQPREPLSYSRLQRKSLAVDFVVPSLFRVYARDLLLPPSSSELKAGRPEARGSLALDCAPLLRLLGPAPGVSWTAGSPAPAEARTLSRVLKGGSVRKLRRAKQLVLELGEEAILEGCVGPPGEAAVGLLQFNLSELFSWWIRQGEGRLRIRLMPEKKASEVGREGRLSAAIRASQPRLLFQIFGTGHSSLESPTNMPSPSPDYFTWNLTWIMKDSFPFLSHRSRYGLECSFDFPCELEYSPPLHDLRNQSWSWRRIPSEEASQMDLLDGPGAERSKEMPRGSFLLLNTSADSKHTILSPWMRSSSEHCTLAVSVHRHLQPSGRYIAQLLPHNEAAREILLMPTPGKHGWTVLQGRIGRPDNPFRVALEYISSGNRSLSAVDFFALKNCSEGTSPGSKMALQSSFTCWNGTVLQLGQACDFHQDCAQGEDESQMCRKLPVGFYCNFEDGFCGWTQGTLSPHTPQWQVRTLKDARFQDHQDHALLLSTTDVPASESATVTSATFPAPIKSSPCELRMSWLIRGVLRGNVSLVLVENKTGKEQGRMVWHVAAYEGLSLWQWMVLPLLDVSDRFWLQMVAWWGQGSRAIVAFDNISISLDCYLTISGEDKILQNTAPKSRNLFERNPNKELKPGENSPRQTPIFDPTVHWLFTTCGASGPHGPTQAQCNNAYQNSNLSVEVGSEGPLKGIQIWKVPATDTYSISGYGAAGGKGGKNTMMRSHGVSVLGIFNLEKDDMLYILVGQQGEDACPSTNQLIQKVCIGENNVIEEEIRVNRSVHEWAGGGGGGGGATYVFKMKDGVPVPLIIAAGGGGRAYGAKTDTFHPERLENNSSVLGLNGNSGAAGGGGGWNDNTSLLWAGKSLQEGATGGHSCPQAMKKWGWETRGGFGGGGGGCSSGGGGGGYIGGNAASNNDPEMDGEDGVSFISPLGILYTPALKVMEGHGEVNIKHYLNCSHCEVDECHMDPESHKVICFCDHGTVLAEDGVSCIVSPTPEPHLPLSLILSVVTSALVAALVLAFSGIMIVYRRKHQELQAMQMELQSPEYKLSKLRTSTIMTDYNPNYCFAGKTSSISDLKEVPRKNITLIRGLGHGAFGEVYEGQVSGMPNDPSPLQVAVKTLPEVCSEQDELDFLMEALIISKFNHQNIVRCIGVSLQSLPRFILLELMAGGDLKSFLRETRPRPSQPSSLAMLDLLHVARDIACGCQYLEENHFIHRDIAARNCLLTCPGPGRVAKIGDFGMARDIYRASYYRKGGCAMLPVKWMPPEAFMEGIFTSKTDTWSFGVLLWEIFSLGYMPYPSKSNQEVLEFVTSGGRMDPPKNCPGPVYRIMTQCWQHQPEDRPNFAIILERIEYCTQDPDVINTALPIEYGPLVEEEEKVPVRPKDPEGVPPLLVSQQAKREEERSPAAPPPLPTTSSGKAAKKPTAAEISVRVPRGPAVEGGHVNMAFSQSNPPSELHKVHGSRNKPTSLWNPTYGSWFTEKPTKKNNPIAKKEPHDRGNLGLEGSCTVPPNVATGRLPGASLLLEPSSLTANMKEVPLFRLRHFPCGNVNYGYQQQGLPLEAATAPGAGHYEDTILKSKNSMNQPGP
T7 sequence (P05177 whole entry): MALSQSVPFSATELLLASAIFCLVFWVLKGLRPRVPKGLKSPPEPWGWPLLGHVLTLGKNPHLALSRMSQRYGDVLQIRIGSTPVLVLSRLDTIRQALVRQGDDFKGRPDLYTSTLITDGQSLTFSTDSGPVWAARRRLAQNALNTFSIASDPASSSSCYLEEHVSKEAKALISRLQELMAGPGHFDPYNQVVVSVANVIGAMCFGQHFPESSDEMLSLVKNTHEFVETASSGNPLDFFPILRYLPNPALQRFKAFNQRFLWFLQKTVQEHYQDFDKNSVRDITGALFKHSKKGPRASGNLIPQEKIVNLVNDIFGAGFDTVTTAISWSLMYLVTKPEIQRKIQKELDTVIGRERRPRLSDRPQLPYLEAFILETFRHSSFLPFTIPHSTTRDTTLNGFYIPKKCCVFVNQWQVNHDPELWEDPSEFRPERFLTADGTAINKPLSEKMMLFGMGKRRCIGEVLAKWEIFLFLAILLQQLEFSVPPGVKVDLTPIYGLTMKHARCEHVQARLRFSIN
T6 sequence (P33261 whole entry): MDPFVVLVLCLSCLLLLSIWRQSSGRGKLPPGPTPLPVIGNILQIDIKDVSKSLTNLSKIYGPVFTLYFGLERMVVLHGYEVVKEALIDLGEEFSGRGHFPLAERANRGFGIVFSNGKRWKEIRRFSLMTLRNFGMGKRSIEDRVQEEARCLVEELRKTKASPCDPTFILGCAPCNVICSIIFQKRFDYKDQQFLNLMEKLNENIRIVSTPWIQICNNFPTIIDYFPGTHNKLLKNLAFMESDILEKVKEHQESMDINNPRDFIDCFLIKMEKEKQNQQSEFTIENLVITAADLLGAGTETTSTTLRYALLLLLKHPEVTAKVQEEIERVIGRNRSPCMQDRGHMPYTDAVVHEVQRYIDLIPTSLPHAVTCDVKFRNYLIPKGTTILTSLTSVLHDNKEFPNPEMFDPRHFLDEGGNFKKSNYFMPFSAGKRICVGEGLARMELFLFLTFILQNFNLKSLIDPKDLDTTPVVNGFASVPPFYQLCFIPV

Row | SMILES | IC50 (HDAC11) | IC50 (HDAC6) | IC50 (HDAC1) | IC50 (ALK; [4]) | IC50 (HDAC8) | IC50 (H2228) | also measured
1 | CCCCc1nc2cc(/C=C/C(=O)NO)ccc2n1CCN(CC)CC [Pracinostat (2), Pracinostat, reference compound] |  |  |  |  |  | 690 ± 50 nM | acetylated histone H3 level [1]: highest level of acetylated histone; phosphorylation level of Y1604 on ALK [2]: enhanced the ALK kinase activity
2 | CC(C)NC(=O)CCCn1/c(=N/C(=O)c2ccccc2)[nH]c2cc(Br)ccc21 [Compound 6, (E)-N-(5-Bromo-1–(4-(isopropylamino)-4-oxobutyl)-1H-benzo[d]imidazol-2(3H)-ylidene)benzamide] |  |  |  |  |  |  | inhibition at 10 µM (ALK; single dose at 10 μM, duplicate, average, read-out: ALK relative inhibition of enzymatic activity): 18.8%
3 | CC(=O)N1CCN(c2ccc(OCC3COC(Cn4ccnc4)(c4ccc(Cl)cc4Cl)O3)cc2)CC1 (stereo not drawn) [Ketoconazole, reference compound] |  |  |  |  |  |  | IC50 (CYP2C19): 1300 nM; IC50 (CYP1A2): 590 nM
4 | C[C@@H](Oc1cc(-c2cnn(C3CCNCC3)c2)cnc1N)c1c(Cl)ccc(F)c1Cl [Crizotinib, reference compound] |  |  |  |  |  | 130 ± 50 nM | IC50 (MCF7): 95 ± 24 nM; IC50 (U87MG): 48 ± 8 nM

Second part, led by results:

Row | IC50 (HDAC11) | IC50 (HDAC6) | IC50 (HDAC1) | IC50 (ALK; [4]) | IC50 (HDAC8) | IC50 (H2228) | SMILES | also measured
5 | 1720 nM | 100 nM | 2290 nM | 15 nM | 2520 nM |  | CC(C)NC(=O)[C@H]1CC[C@@H](n2/c(=N/C(=O)c3ccccc3)[nH]c3cc(NC(=O)CCCCCCC(=O)NO)ccc32)CC1 [Compound 3f] | 
6 | > 30000 nM | 2340 nM | > 30000 nM | 5.2 nM | 2870 nM | 210 ± 70 nM | CC(C)NC(=O)[C@H]1CC[C@@H](n2/c(=N/C(=O)c3ccccc3)[nH]c3ccc(/C=C/C(=O)NO)cc32)CC1 [Compound 3c, (E)-N-(6-((E)-3-(Hydroxyamino)-3-oxoprop-1-en-1-yl)-1-((1S,4S)-4-(isopropylcarbamoyl)cyclohexyl)-1H-benzo[d]imidazol-2(3H)-ylidene)benzamide] | phosphorylation level of Y1604 on ALK [2]: significantly decreased; protein expression level of HDAC1, HDAC6, or HDAC8 [3]: not perturbed; IC50 (MCF7): 980 ± 30 nM; IC50 (A549): 7260 ± 2660 nM; IC50 (U87MG): 11100 ± 810 nM; IC50 (ALK): 15 nM; fold greater ALK inhibition ability (ALK; hydroxamate moved from C-5 to C-6 position (versus 3b)): 3 fold
7 | 1420 nM | 210 nM | 840 nM | > 10000 nM | 1780 nM |  | CCCC(=O)/N=c1\[nH]c2cc(/C=C/C(=O)NO)ccc2n1CCCC(=O)NC(C)C [Compound 3e, 4-((E)-2-(butyrylimino)-5-((E)-3-(hydroxyamino)-3-oxoprop-1-en-1-yl)-2,3-dihydro-1H-benzo[d]imidazol-1-yl)-N-isopropylbutanamide] | 
8 | > 30000 nM | 2470 nM | > 30000 nM | 3730 nM | 7770 nM |  | CC(C)NC(=O)CCCn1/c(=N/C(=O)c2cc(F)cc(F)c2)[nH]c2cc(/C=C/C(=O)NO)ccc21 [Compound 3d, (E)-3,5-Difluoro-N-(5-((E)-3-(hydroxyamino)-3-oxoprop-1-en-1-yl)-1–(4-(isopropylamino)-4-oxobutyl)-1H-benzo[d]imidazol-2(3H)-ylidene)benzamide] | 
9 | 9350 nM | 810 nM | 6180 nM | 5750 nM | 2950 nM |  | CC(C)NC(=O)CCCn1/c(=N/C(=O)c2ccccc2)[nH]c2cc(/C=C/C(=O)NO)ccc21 [Compound 3a, (E)-N-(5-((E)-3-(Hydroxyamino)-3-oxoprop-1-en-1-yl)-1–(4-(isopropylamino)-4-oxobutyl)-1H-benzo[d]imidazol-2(3H)-ylidene)benzamide] | 

— paper PMC10930102 (Journal of Enzyme Inhibition and Medicinal Chemistry, 2024)
